Source: ChEMBL document CHEMBL5214895, “3-Hydroxy-propanamidines, a New Class of Orally Active Antimalarials Targeting Plasmodium falciparum” (J Med Chem, 2021)
Active and inactive are the calls of the source. The calls are words filed in the database; no cut-off is given here.

Columns and labels:
[1] = Cytotoxicity against human HepG2 cells assessed as inhibition of cell growth incubated for 24 hrs by neutral red dye based analysis; assay type: toxicity
[2] = test system: Plasmodium berghei; experiment: Antimalarial activity against Plasmodium berghei infected in mouse assessed as reduction in parasitemia in blood at 10 mg/kg, po administered for 4 times starting from 4 to 72 hrs and measured after 96 hrs post infection (reference value: 0%); assay type: functional; design: scale not given: the % may be the effect or the level left
[3] = Metabolic stability in human liver microsomes assessed as intrinsic clearance; assay type: ADME, Microsome
[4] = test system: Plasmodium falciparum; experiment: Antiplasmodial activity against chloroquine-sensitive asexual blood stage Plasmodium falciparum 3D7 assessed as inhibition of parasite growth incubated for […] by HRP2-ELISA; assay type: functional, organism-based
[5] = Selectivity index, ratio of IC50 for cytotoxicity against human HepG2 cells to IC50 for antiplasmodial activity against chloroquine-sensitive asexual blood stage Plasmodium falciparum 3D7; assay type: toxicity, cell-based; conditions: read-out: Ratio IC50
[6] = test system: Plasmodium falciparum; experiment: Induction of drug resistance in Plasmodium falciparum Dd2 clone FL2-C4 assessed as fold increase in IC50 incubated for 72 hrs by SYBR green-based assay; assay type: functional
[7] = Tmax in mouse infected with Plasmodium berghei at 10 mg/kg, po administered as single dose and measured for 24 hrs by LC-MS/MS analysis; assay type: ADME, organism-based; conditions: in vivo
[8] = Observed AUC(0 to infinity) in mouse infected with Plasmodium berghei at 10 mg/kg, po administered as single dose and measured for 24 hrs by LC-MS/MS analysis; assay type: ADME, organism-based; design: dose 10 mg/kg, time 24 hrs, route po; conditions: in vivo
[9] = Half life in mouse infected with Plasmodium berghei at 10 mg/kg, po administered as single dose and measured for 24 hrs by LC-MS/MS analysis; assay type: ADME, organism-based; conditions: in vivo
[10] = Elimination half life in mouse infected with Plasmodium berghei at 3 mg/kg, po administered as single dose and measured for 24 hrs by LC-MS/MS analysis; assay type: ADME, organism-based; conditions: in vivo, read-out: beta t1/2 (converted)
[11] = Chemical stability of compound in Tween20/ethanol/phosphate buffer at pH 7.5 assessed as drug degradation measured over 24 hrs; assay type: physicochemical; conditions: read-out: Drug degradation
[12] = target: Voltage-gated inwardly rectifying potassium channel KCNH2 (Homo sapiens, UniProt Q12809); experiment: Inhibition of hERG by fluorescence polarization assay; assay type: toxicity
Sequence of Voltage-gated inwardly rectifying potassium channel KCNH2 (Q12809 whole entry): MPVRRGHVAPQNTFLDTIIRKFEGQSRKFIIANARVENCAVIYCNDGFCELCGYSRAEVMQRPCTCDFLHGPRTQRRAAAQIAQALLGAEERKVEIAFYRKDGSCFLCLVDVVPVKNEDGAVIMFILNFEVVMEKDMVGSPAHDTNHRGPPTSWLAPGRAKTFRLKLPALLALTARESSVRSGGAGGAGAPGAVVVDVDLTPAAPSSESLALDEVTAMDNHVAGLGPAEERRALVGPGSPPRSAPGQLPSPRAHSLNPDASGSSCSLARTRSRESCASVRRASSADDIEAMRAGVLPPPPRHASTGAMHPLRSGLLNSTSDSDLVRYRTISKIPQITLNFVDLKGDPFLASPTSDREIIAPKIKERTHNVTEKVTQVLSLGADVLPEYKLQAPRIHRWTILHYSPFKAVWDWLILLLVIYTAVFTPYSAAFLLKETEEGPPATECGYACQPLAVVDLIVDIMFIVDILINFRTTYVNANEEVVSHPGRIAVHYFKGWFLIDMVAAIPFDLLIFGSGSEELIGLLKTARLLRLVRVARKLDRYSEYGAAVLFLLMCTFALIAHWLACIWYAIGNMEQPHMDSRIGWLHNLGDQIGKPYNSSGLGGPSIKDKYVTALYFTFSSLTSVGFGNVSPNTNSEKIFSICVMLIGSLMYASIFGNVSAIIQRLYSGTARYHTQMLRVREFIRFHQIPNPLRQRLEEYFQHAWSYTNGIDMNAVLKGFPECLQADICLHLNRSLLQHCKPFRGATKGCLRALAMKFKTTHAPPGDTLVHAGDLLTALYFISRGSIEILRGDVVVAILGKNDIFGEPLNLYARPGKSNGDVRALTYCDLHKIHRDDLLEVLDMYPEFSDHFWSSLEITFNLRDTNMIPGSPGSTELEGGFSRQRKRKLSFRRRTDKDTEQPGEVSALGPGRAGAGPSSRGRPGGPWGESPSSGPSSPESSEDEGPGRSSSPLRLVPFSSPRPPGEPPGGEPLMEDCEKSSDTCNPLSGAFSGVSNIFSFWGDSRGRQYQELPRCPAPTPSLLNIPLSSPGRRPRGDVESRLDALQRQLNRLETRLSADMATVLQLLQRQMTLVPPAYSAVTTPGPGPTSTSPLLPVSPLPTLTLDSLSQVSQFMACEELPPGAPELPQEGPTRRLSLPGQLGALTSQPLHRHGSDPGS

[13] = AUC(0 to t) in mouse infected with Plasmodium berghei at 30 mg/kg, po administered as single dose and measured for 24 hrs by LC-MS/MS analysis; assay type: ADME, organism-based; design: dose 30 mg/kg, time 24 hrs, route po; conditions: in vivo
[14] = Cytotoxicity against human HeLa cells assessed as inhibition of cell growth incubated for 24 hrs by neutral red dye based analysis; assay type: toxicity
[15] = Metabolic stability in human liver microsomes assessed as parent compound remaining at 2 uM incubated for 40 mins in presence of NADPH by LC-MS/MS analysis; assay type: ADME, Microsome; conditions: read-out: Stability
[16] = test system: Plasmodium falciparum; experiment: Antiplasmodial activity against hyper mutating Plasmodium falciparum Dd2 harboring proofreading-deficient DNA polymerase delta assessed as inhibition of parasite growth incubated for 72 hrs by SYBR green-based assay; assay type: functional, organism-based; conditions: Dd2, 72 h
[17] = Tmax in mouse infected with Plasmodium berghei at 3 mg/kg, po administered as single dose and measured for 24 hrs by LC-MS/MS analysis; assay type: ADME, organism-based; conditions: in vivo
[18] = test system: Plasmodium berghei; experiment: Antimalarial activity against Plasmodium berghei infected in mouse assessed as mean survival days at 30 mg/kg, po administered for 4 times starting from 4 to 72 hrs and monitered for 30 days (reference value: 4 days); assay type: functional; conditions: time 30 day
[19] = test system: Plasmodium falciparum; experiment: Inhibition of hemozoin formation in sorbitol-synchronized early ring stage plasmodium falciparum NF54 trophozoites assessed as reduction in hemozoin level at 2.5 times IC50 incubated for 28 hrs by flow cytometry analysis; assay type: functional
[20] = Chemical stability of compound in Tween20/ethanol/phosphate buffer at pH 2 assessed as drug degradation measured over 24 hrs; assay type: physicochemical; conditions: read-out: Drug degradation
[21] = Cmax in mouse infected with Plasmodium berghei at 10 mg/kg, po administered as single dose and measured for 24 hrs by LC-MS/MS analysis; assay type: ADME, organism-based; design: dose 10 mg/kg, time 24 hrs, route po; conditions: in vivo
[22] = test system: Plasmodium berghei; experiment: Antimalarial activity against Plasmodium berghei infected in mouse assessed as reduction in parasitemia in blood at 3 mg/kg, po administered for 4 times starting from 4 to 72 hrs and measured after 96 hrs post infection (reference value: 0 %); assay type: functional; design: scale not given: the % may be the effect or the level left
[23] = test system: Plasmodium falciparum; experiment: Inhibition of hemozoin formation in sorbitol-synchronized early ring stage plasmodium falciparum NF54 trophozoites assessed as increase in free heme level at 2.5 times IC50 incubated for 28 hrs by flow cytometry analysis; assay type: functional
[24] = Half life in mouse infected with Plasmodium berghei at 3 mg/kg, po administered as single dose and measured for 24 hrs by LC-MS/MS analysis; assay type: ADME, organism-based; conditions: in vivo
[25] = AUC(0 to t) in mouse infected with Plasmodium berghei at 3 mg/kg, po administered as single dose and measured for 24 hrs by LC-MS/MS analysis; assay type: ADME, organism-based; design: dose 3 mg/kg, time 24 hrs, route po; conditions: in vivo
[26] = Cmax in mouse infected with Plasmodium berghei at 30 mg/kg, po administered as single dose and measured for 24 hrs by LC-MS/MS analysis; assay type: ADME, organism-based; design: dose 30 mg/kg, time 24 hrs, route po; conditions: in vivo
[27] = test system: Plasmodium berghei; experiment: Antimalarial activity against Plasmodium berghei infected in mouse assessed as reduction in parasitemia in blood at 50 mg/kg, po administered for 4 times starting from 4 to 72 hrs and measured after 96 hrs post infection (reference value: 0%); assay type: functional; design: scale not given: the % may be the effect or the level left
[28] = test system: Plasmodium berghei; experiment: Antimalarial activity against Plasmodium berghei infected in mouse assessed as mean survival days at 50 mg/kg, po administered for 4 times starting from 4 to 72 hrs and monitered for 30 days (reference value: 4 days); assay type: functional; conditions: time 30 day
[29] = Elimination half life in mouse infected with Plasmodium berghei at 30 mg/kg, po administered as single dose and measured for 24 hrs by LC-MS/MS analysis; assay type: ADME, organism-based; conditions: in vivo, read-out: beta t1/2 (converted)
[30] = Elimination half life in mouse infected with Plasmodium berghei at 10 mg/kg, po administered as single dose and measured for 24 hrs by LC-MS/MS analysis; assay type: ADME, organism-based; conditions: in vivo, read-out: beta t1/2 (converted)
[31] = test system: Plasmodium falciparum; experiment: Antiplasmodial activity against sorbitol-synchronized early ring stage plasmodium falciparum NF54 trophozoites assessed as inhibition of parasite growth incubated for 72 hrs by SYBR green-based parasite susceptibility assay; assay type: functional, organism-based; conditions: NF54, 72 h
[32] = test system: Plasmodium falciparum; experiment: Antiplasmodial activity against multidrug resistant asexual blood stage Plasmodium falciparum Dd2-B2 assessed as inhibition of parasite growth incubated for 72 hrs by SYBR green-based assay; assay type: functional, organism-based; conditions: Dd2-B2, 72 h
[33] = Tmax in mouse infected with Plasmodium berghei at 30 mg/kg, po administered as single dose and measured for 24 hrs by LC-MS/MS analysis; assay type: ADME, organism-based; conditions: in vivo
[34] = Cmax in mouse infected with Plasmodium berghei at 3 mg/kg, po administered as single dose and measured for 24 hrs by LC-MS/MS analysis; assay type: ADME, organism-based; design: time 24 hrs, dose 3 mg/kg, route po; conditions: in vivo
[35] = Cytotoxicity against HEK293 cells assessed as inhibition of cell growth incubated for 24 hrs by neutral red dye based analysis; assay type: toxicity; conditions: human
[36] = test system: Plasmodium falciparum; experiment: Antiplasmodial activity against multidrug resistant asexual blood stage Plasmodium falciparum Dd2 assessed as inhibition of parasite growth incubated for […] by HRP2-ELISA; assay type: functional, organism-based
[37] = AUC(0 to t) in mouse infected with Plasmodium berghei at 10 mg/kg, po administered as single dose and measured for 24 hrs by LC-MS/MS analysis; assay type: ADME, organism-based; design: time 24 hrs, dose 10 mg/kg, route po; conditions: in vivo
[38] = test system: Plasmodium berghei; experiment: Antimalarial activity against Plasmodium berghei infected in mouse assessed as reduction in parasitemia in blood at 30 mg/kg, po administered for 4 times starting from 4 to 72 hrs and measured after 96 hrs post infection (reference value: 0%); assay type: functional; design: scale not given: the % may be the effect or the level left
[39] = Half life in mouse infected with Plasmodium berghei at 30 mg/kg, po administered as single dose and measured for 24 hrs by LC-MS/MS analysis; assay type: ADME, organism-based; conditions: in vivo
[40] = test system: Plasmodium falciparum; experiment: Induction of drug resistance in Plasmodium falciparum Dd2 clone FL3-C3 assessed as fold increase in IC50 incubated for 72 hrs by SYBR green-based assay; assay type: functional
[41] = Observed AUC(0 to infinity) in mouse infected with Plasmodium berghei at 3 mg/kg, po administered as single dose and measured for 24 hrs by LC-MS/MS analysis; assay type: ADME, organism-based; design: dose 3 mg/kg, time 24 hrs, route po; conditions: in vivo
[42] = Observed AUC(0 to infinity) in mouse infected with Plasmodium berghei at 30 mg/kg, po administered as single dose and measured for 24 hrs by LC-MS/MS analysis; assay type: ADME, organism-based; design: dose 30 mg/kg, time 24 hrs, route po; conditions: in vivo

COc1ccc(/N=C(\N)CC(O)c2cc3c(F)cc(F)cc3c3cc(C(F)(F)F)ccc23)cc1.Cl (configuration not stated)
IC50 at 24 h [1]: 4300 nM | Activity [2]: 99.9% | CLH [3]: 9 µL/min/mg | IC50 [4]: 5 nM | selectivity ratio [5]: 860 | fold change (FC) [6]: 3 | Tmax [7]: 60 min | AUC [8]: 199.7 ng·h/mL | t1/2 [9]: 248 min | half-life [10]: 7.58 min | degraded at 24 h [11]: 1% | IC50 [12]: 190 nM | AUCt [13]: 783.1 ng·h/mL | IC50 at 24 h [14]: 46100 nM | remaining at 40 min, 2 µM [15]: 86% | IC50 [16]: 15 nM | Tmax [17]: 60 min | MSD [18]: 17 days | inhibition [19]: Active | degraded at 24 h [20]: 0.1% | Cmax [21]: 23 ng/mL | Activity [22]: 0% | inhibition [23]: Active | t1/2 [24]: 313 min | AUCt [25]: 20.4 ng·h/mL | Cmax [26]: 57.3 ng/mL | Activity [27]: 99.8% | MSD [28]: 27 days | half-life [29]: 4.18 min | half-life [30]: 7.91 min | IC50 [31]: 8.4 nM | IC50 [32]: 15.3 nM | Tmax [33]: 60 min | Cmax [34]: 3.3 ng/mL | IC50 at 24 h [35]: 36800 nM | IC50 [36]: 12 nM | AUCt [37]: 192.1 ng·h/mL | Activity [38]: 99.9% | t1/2 [39]: 421 min | fold change (FC) [40]: 3 | AUC [41]: 21.5 ng·h/mL | AUC [42]: 848.1 ng·h/mL
